We go through 19 compounds from US20060234944A1, “Beta-secretase inhibitors and methods of use” (Oklahoma Medical Reseach Foundation, priority 2001, published 2006).

T1 sequence (P56817 41-454): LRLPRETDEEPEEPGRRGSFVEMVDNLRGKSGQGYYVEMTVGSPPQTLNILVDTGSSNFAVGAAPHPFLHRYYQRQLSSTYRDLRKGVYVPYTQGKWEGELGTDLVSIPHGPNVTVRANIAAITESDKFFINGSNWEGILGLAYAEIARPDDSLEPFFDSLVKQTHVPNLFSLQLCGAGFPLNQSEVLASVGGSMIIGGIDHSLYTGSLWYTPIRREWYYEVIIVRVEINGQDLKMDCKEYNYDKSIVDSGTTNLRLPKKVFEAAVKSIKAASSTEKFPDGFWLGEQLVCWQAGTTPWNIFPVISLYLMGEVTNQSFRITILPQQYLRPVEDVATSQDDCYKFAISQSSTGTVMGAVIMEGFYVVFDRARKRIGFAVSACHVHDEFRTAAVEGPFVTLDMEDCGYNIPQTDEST

The first test addresses T1, memapsin 2 (Homo sapiens, UniProt P56817).
T1 construct: made in house; host or cells: E. coli
As to the kind of experiment: Inhibition of memapsin 2 cleavage of fluorogenic substrate FS-2 (Ki, Ki apparent, Vi/Vo, % inhibition). As to conditions: Table 1; apparent Ki in presence of substrate FS-2; N.I. = no inhibition; read-out: Ki app. Type of test: biochemical. As for the experimental part: Ki is the inhibition equilibrium constant which indicates the ability of compounds to inhibit the β-secretase activity of memapsin 2 and memapsin 1. […] The K1 value is independent of the substrate, and converted from Ki apparent.
The Vi/Vo values depicted in Table 1 were determined at conditions under which the enzyme and inhibitor concentrations were equal (e.g., about 80 nM, 100 nM).
The relationship of Ki (independent of substrate concentration) to Kiapp is a function of substrate concentration in the assay and the Km for cleavage of the substrate by either memapsin 1 or memapsin 2 by the relationship: Kiapp=Ki(1+[S]/Km).
Ki is the inhibition equilibrium constant which indicates the ability of compounds to inhibit the β-secretase activity of memapsin 2 and memapsin 1. […] The Ki value is independent of the substrate, and converted from Ki apparent.
An aliquot of the inhibitor of known concentration in DMSO was diluted into 1.8 ml 0.1 M NaOAc, pH 4.0. DMSO and added to a final concentration of 10% (v/v), and memapsin 2 (final concentration of 80 nM), followed by a 20 minute equilibration at 37° C. Compounds were evaluated for the ability to inhibit memapsin 1 and memapsin 2 at concentrations between about 10 nM and about 10 μm of inhibitor.
The relationship of Ki (independent of substrate concentration) to Kiapp is a function of substrate concentration in the assay and the Km for cleavage of the substrate by either memapsin 1 or memapsin 2 by the relationship: Kiapp=Ki (1+[S]/Km).
Regarding `CSCC[C@H](NC(=O)[C@H](C)NC(=O)[C@H](C)C[C@H](O)[C@H](CC(C)C)NC(=O)OC(C)(C)C)C(=O)NCc1ccccc1` [MMI-002], the Ki was found to be 431 µM.
The same measure, in the same setting: the figure for `CC(C)C[C@H](NC(=O)[C@H](CCS(C)(=O)=O)NC(=O)[C@@H](NC(=O)OC(C)(C)C)C(C)C)[C@@H](O)C[C@@H](C)C(=O)N[C@@H]1c2ccccc2C[C@@H]1O` [MMI-054] is 469 µM; for `CC(C)C[C@H](NC(=O)OC(C)(C)C)[C@@H](O)C[C@@H](C)C(=O)N[C@@H](C)C(=O)NCc1ccccc1` [MMI-001] it is 3740 µM.
Same read-out and setting: the value for `CC(C)C[C@H](NC(=O)[C@H](CCS(C)(=O)=O)NC(=O)[C@@H](NC(=O)OC(C)(C)C)C(C)C)[C@@H](O)C[C@@H](C)C(=O)N[C@H]1c2ccccc2C[C@H]1O` [MMI-047] was 111 µM; that for `CC(C)C[C@H](NC(=O)OC(C)(C)C)[C@@H](O)C[C@@H](C)C(=O)N[C@@H](C)C(=O)N[C@@H](CCS(C)(=O)=O)C(=O)NCc1ccccc1` [MMI-003] was 2620 µM; that for `CSCC[C@H](NC(=O)[C@@H](NC(=O)OC(C)(C)C)C(C)C)C(=O)N[C@@H](CC(C)C)[C@@H](O)C[C@@H](C)C(=O)N[C@@H](C(C)C)C1CCCCO1` (stereo partly shown) [MMI-130] was 110 µM.
Same read-out and setting: the value for `CCC(C)[C@H](NC(=O)[C@H](C)C[C@H](O)[C@H](CC(C)C)NC(=O)[C@H](CCO)NC(=O)c1cnc2ccccc2c1)C(=O)N[C@H]1c2ccccc2C[C@H]1O` (stereo partly shown) [MMI-050] was 146 µM; that for `CSCC[C@H](NC(=O)[C@@H](NC(=O)OC(C)(C)C)C(C)C)C(=O)N[C@@H](CC(C)C)[C@@H](O)C[C@@H](C)C(=O)N[C@H]1c2ccccc2C[C@H]1O` [MMI-046] was 150 µM.
As to `CC(C)C[C@H](NC(=O)[C@H](CCS(C)(=O)=O)NC(=O)[C@@H](NC(=O)OC(C)(C)C)C(C)C)[C@@H](O)C[C@@H](C)C(=O)N[C@@H]1CCCC[C@@H]1O` [MMI-058], the Ki was found to be 408 µM.

The same test, now with this note: Table 9; ratio of % inhibition memapsin 1 / memapsin 2; 1 or less = greater inhibition of memapsin 2.
Take `CCCCNC(=O)[C@H](C(C)C)N1CC[C@@](C)(C[C@H](O)[C@H](CC(C)C)NC(=O)[C@H](CCSC)NC(=O)OCn2nc(C)cc2C)C1=O` [MMI-182]: the “% Inh (M1/M2)” value was found to be 0.
`CSCC[C@H](NC(=O)OCCn1nc(C)cc1C)C(=O)N[C@@H](CC(C)C)[C@@H](O)C[C@@H](C)C(=O)N[C@@H](CC(C)C)C(=O)NCC(C)C` [MMI-176]: the “% Inh (M1/M2)” value stood at 0.
The same measure, in the same setting: the figure for `CSCC[C@H](NC(=O)OCn1nc(C)cc1C)C(=O)N[C@@H](CC(C)C)[C@@H](O)C[C@@H](C)C(=O)N[C@H](C(=O)NCC(C)C)C(C)C` [MMI-156] is 0.47; for `Cc1cc(C)n(COC(=O)N[C@@H](CCS(C)(=O)=O)C(=O)N[C@@H](CC(C)C)[C@@H](O)C[C@@H](C)C(=O)N[C@H](C(=O)NCc2ccccc2)C(C)C)n1` [MMI-139] it is 0; for `CSCC[C@H](NC(=O)[C@@H](NC(=O)OC(C)(C)C)C(C)C)C(=O)N[C@@H](CC(C)C)[C@@H](O)C[C@@H](CO)C(=O)N[C@H](C(=O)NCc1ccccc1)C(C)C` [MMI-132] it is 1.30.
Still for that read-out and setting: the figure for `CCCCNC(=O)[C@@H](NC(=O)[C@H](C)C[C@H](O)[C@H](CC(C)C)NC(=O)[C@H](CCSC)NC(=O)OCn1nc(C)cc1C)C(C)C` [MMI-167] is 0.18; for `CSCC[C@H](NC(=O)OCCn1nc(C(C)C)cc1C(C)C)C(=O)N[C@@H](CC(C)C)[C@@H](O)C[C@@H](C)C(=O)N[C@H](C(=O)NCC(C)C)C(C)C` [MMI-180] it is 0; for `CSCC[C@H](NC(=O)OCn1nc(C)cc1C)C(=O)N[C@@H](CC(C)C)[C@@H](O)C[C@]1(C)CCN([C@@H](CC(C)C)C(=O)NCC(C)C)C1=O` [MMI-181] it is 0.19.
Regarding `CSCC[C@H](NC(=O)OCn1nc(C)cc1C)C(=O)N[C@@H](CC(C)C)[C@@H](O)C[C@@H](C)C(=O)N[C@@H](CC(C)C)C(=O)NC(CF)CF` [MMI-171], the “% Inh (M1/M2)” value is on record as 0.18.

The same test, now with this note: ratio of initial cleavage velocities of FS-2 with/without compound; enzyme and inhibitor concentrations equal (e.g., about 80 nM, 100 nM).
With `Cc1c(O)cccc1C(=O)N[C@@H](C(C)C)[C@@H](O)N[C@@H](CCS(C)(=O)=O)C(=O)N[C@@H](CC(C)C)[C@@H](O)C[C@@H](C)C(=O)N[C@@H](CC(C)C)C(=O)NCc1ccccc1` [MMI-122], the Vi/Vo was found to be 1.17.
